Structure (SMILES)	logP
CN(SN(C)C(=O)OC(C)(C)C)C(=O)Oc1cccc2c1OC(C)(C)C2	4.3
COC12C(COC(N)=O)C3=C(C(=O)C(C)=C(N)C3=O)N1CC1C2N1C(=O)Cc1ccccc1 (stereo unspecified)	1.15
CN(C)C(=O)Oc1ccccc1Br	2.17
O=S(=O)(Nc1ccccc1)c1cccc2cccnc12	1.75
CC1CCC(C)N1N=O (stereo unspecified)	0.86
NNC(=O)c1ccc(O)cc1	-0.33
CNC(=O)c1ccc(S(N)(=O)=O)cc1	-0.31
Cc1cc(NC(=O)N(C)C)cc(C)c1Br	2.92
O=NN(CCF)C(=O)NCCCl	0.96
O=C(Nc1ccccc1)c1cc(N2CC2)c([N+](=O)[O-])cc1[N+](=O)[O-]	2.23
CCCCCC[n+]1ccccc1C.[I-]	-1.71
CC1=Nc2ccc(S(=O)(=O)N(C)C)cc2S(=O)(=O)N1	0.32
CCCOC(=O)NC	0.95
CNC(=O)C(CC(C)C)NC(C)=O (stereo unspecified)	0.14
Nc1cc(OCC(=O)O)ccc1Cl	1.16
O=C1CN=C(c2ccc(Cl)cc2)c2cc(Br)ccc2N1	3.78
CC(C)(C)C(=O)C(C#N)=NNc1cc(Cl)c(Cl)cc1Cl	5.86
O=C1CCC(=O)N1c1ccc(Cl)cc1	0.96
CCCSC1OC(CO)C(O)C(O)C1O (stereo unspecified)	-1.18
Fc1cccc(F)c1N=C1NCCN1	0.93
Nc1ncnc2ccccc12	1.28
NC1CC2CC1c1cc(C(F)(F)F)ccc12 (stereo unspecified)	3.19
C[N+](C)(C)Cc1cccc([N+](=O)[O-])c1.[Br-]	-2.66
CCC(C)n1nnc2ccccc21 (stereo unspecified)	2.31
CC(=O)Oc1ccccc1F	1.76
NC(=O)Cn1nnc2ccccc21	-0.1

Structure (SMILES)	logP
C=C(C)C(=O)OC(C)C	2.25
Cn1ncc2ccccc2c1=O	0.61
NS(=O)(=O)c1ccccc1Cl	0.74
COc1cc(CC(C)N)cc(OC)c1OC (stereo unspecified)	1.21
COc1cccc(Cc2cnc(N)nc2N)c1	1.54
CN(Cc1ccc([N+](=O)[O-])cc1)N=Nc1ccc(C(=O)O)cc1	4.03
C[N+](C)(C)Cc1cccc(Cl)c1.[Br-]	-1.81
CCOC(=O)C(=Cc1ccccc1Cl)C(=O)OCC	3.15
COC12C(COC(N)=O)C3=C(C(=O)C(C)=C(Nc4ncc(C)s4)C3=O)N1CC1NC12 (stereo unspecified)	1.16
CC=CCOC(=O)C1C(C=C(C)C)C1(C)C (stereo unspecified)	5.09
COC1OCC(O)C(NC(=O)N(C)N=O)C1O (stereo unspecified)	-1.08
O=S1(=O)NC(C2CC2)=Nc2cc(Cl)ccc21	1.98
CCOC(=O)C(C#N)=NNc1ccc(Cl)c(Cl)c1	4.66
CSC(C)=NOC(=O)N(C)SN(C)C(=O)c1cccc(Cl)c1	2.7
Cc1cccc2c1ncc[n+]2[O-]	1.2
CC(=O)NNC(=O)c1ccccc1N=NN(C)C	1.18
COC(=O)C(C#N)=NNc1cc(Cl)c(Cl)c(Cl)c1	5.22
O=C1CC(C(=O)O)Oc2ccc(Cl)cc21 (stereo unspecified)	1.77
CCCc1nnc(SC)n(N)c1=O	0.93
O=C(NC1CC1)c1cc(N2CC2)c([N+](=O)[O-])cc1[N+](=O)[O-]	0.74
COc1cccc(C=C(C(C)=O)C(C)=O)c1	1.79
Clc1cc(Cl)c(Cl)c(-c2ccc(Cl)c(Cl)c2Cl)c1	7.39
CN(C)C(=O)Cc1ccsc1	0.65
Clc1nc2c(Cl)c(Cl)c(Cl)c(Cl)c2[nH]1	4.53
Clc1cccc(NC2=NCCN2)c1Cl	1.94
CSc1nc2ccc(Cl)cc2[nH]1	3.22

Structure (SMILES)	logP
CC(C)(C)CC(N)C(=O)O (stereo unspecified)	-1.42
CCCCCCCCCCCC[n+]1ccc(C)c(C)c1.[I-]	1.75
O=C1CN=C(c2ccccc2F)c2cc(Cl)c(Cl)cc2N1	3.63
CNC(=O)ON=Cc1cccc(Oc2ccccc2)c1	3.12
COc1ccc2c(c1)C(c1ccccc1)=NCC(=O)N2	2.24
Cc1cc([N+](=O)[O-])c2ccccc2[n+]1[O-]	1.25
CCCCSc1ccccc1OC(=O)NC	2.98
CC(=O)NCCn1c([N+](=O)[O-])cnc1C	-0.47
Cc1ccccc1C1=NCC(=O)N(C)c2ccc(Cl)cc21	3.03
O=[N+]([O-])c1cc[n+]([O-])c2c([N+](=O)[O-])cccc12	0.76
O=S(=O)(Nc1ccc(I)cc1)C(F)(F)F	4.39
COc1cc(Cc2cnc(N)nc2N)cc(OC)c1C(C)=O	1.1
COc1nnc(C(C)C)c(=O)n1N	-0.06
COCN1C(=O)CN=C(c2ccccc2)c2cc([N+](=O)[O-])ccc21	2.05
COc1ccccc1N=NN(C)C	2.34
Clc1cc(Cl)cc(-c2c(Cl)c(Cl)cc(Cl)c2Cl)c1	7.37
CCNC1CC2CC1c1ccccc12 (stereo unspecified)	2.72
O=[N+]([O-])C=Cc1ccc([N+](=O)[O-])cc1	1.89
CCOC(=O)c1ccc2ncccc2c1	2.64
Cc1c([N+](=O)[O-])cc(C(N)=O)cc1[N+](=O)[O-]	0.68
CN1CCN(C(=O)c2ccccc2)CC1	0.35
CCOC(=O)C(=Cc1ccc(C)cc1)C(C)=O	2.63
O=NN(CCCl)C(=O)NC1CCC(=O)NC1=O (stereo unspecified)	0.37
CC1=Nc2cc(C)ccc2S(=O)(=O)N1	0.74
COP(=O)(OC)Oc1ccc([N+](=O)[O-])c(Cl)c1	1.83
Nc1nc(=O)c2ccccc2[nH]1	0.6

Structure (SMILES)	logP
NC(=O)c1[nH]cnc1/N=N/N(CCO)CCO	-1.09
CNP(=O)(OC)Oc1ccc([N+](=O)[O-])cc1 (stereo unspecified)	1.27
COc1ccc(Cc2cnc(N)nc2N)cc1N	0.76
CCCCNP(=O)(OC)Oc1cc(Cl)c(Cl)cc1Cl (stereo unspecified)	4.18
O=NN(CCCl)C(=O)NC1CS(=O)(=O)CS(=O)(=O)C1	-0.94
CCCS(=O)(=O)c1cc(OC)c(OC)c(OC)c1	1.56
c1cncc(CCN2CCCCC2)c1	1.66
COc1cc(Cc2cnc(N)nc2N)cc(OC)c1Cl	1.87
CCCC(=O)N(C)SN(C)C(=O)Oc1cccc2c1OC(C)(C)C2	3.8
ClC1C=CCC(Cl)C1Cl (stereo unspecified)	2.84
O=C1CC2OCCC3CN4CCC56c7ccccc7N1C5C2C3CC46 (stereo unspecified)	1.62
CCCCCCc1nnc(N)o1	1.43
CCCCCCCCCCCCCC[n+]1ccc(C)c(C)c1.[I-]	2.93
COc1ccc(C(N)=O)cc1N=NN(C)C	0.44
O=S(=O)(Nc1cn[nH]c1)c1ccccc1	0.87
O=S1(=O)NC(CCl)=Nc2cc(Cl)ccc21	1.68
COc1cn[nH]c1	0.37
O=CNc1nccs1	0.54
COC(=O)C(C#N)=NNc1ccccc1C(F)(F)F	3.7
CCCCc1ccc2nc(C(F)(F)F)[nH]c2c1	4.27
COP(=O)(OC)Oc1ccccc1	1.22
COc1cc(OC)cc(OC(=O)CNC(=O)c2ccccc2)c1	2.69
O=[N+]([O-])c1ccc(C=Cc2nccc(Cl)n2)o1	1.31
O=S(=O)(Nc1cccc(F)c1)C(F)(F)F	3.42
CC(C)Cc1nnc(N)o1	0.4
CCCCCC[n+]1ccccc1.[Br-]	-2.03

Structure (SMILES)	logP
CCCCCNc1ccc(C(=O)OCCN(C)C)cc1	4.14
CCNCNC(=O)c1ccccc1	0.56
Cc1cccc(C)c1NC(=O)CN(C)C	0.94
CCCOP(N)(=O)SCCC (stereo unspecified)	1.23
CN(C)c1cc(Cc2cnc(N)nc2N)cc(N(C)C)c1	1.6
CS(=O)(=O)Nc1cccc(NS(C)(=O)=O)c1	0.07
COc1cc(S(=O)(=O)CCO)cc(OC)c1OC	0.18
CN1C(=O)C(=Cc2ccc([N+](=O)[O-])o2)SC1=S	1.06
O=[N+]([O-])c1cc2nc(C(F)(F)F)[nH]c2cc1Cl	3.21
C#CC(C=CCl)(CC)OC(N)=O (stereo unspecified)	1.71
CN(C)S(=O)(=O)c1ccccc1	1.35
CC(=O)Oc1cccc(C(F)(F)F)c1	2.63
O=S1(=O)NC(C2CC3C=CC2C3)=Nc2ccccc21 (stereo unspecified)	2.06
CSC1=NC(=O)C(=Cc2ccc([N+](=O)[O-])o2)S1	1.41
Oc1ccnc2c(O)cccc12	0.62
CC(=O)Cn1ccnc1[N+](=O)[O-]	-0.34
COc1ccc(N2C(N)=NC(N)=NC2(C)C)cc1	0.4
CCCC1=Nc2cc(Cl)ccc2S(=O)(=O)N1	2.04
CCC(=O)N(C)c1ccc(S(=O)(=O)N(C)C)cc1	0.71
O=[N+]([O-])c1cccc2c1c([N+](=O)[O-])cc[n+]2[O-]	0.95
NC(=O)CCCCCn1nnc2ccccc21	0.79
COc1nc(C)cc(-n2[nH]c(C)cc2=O)n1	1.03
CN(CCO)N=Nc1ccccc1	1.71
O=[N+]([O-])c1cnc(N=C2NCC(O)CN2)s1 (stereo unspecified)	0.74
CC1=C(C(N)=O)SCCO1	-0.22
CNP(=O)(OC)Oc1ccc(C(C)(C)C)cc1 (stereo unspecified)	2.71

Structure (SMILES)	logP
CC(=O)Oc1ccc(C=CNC=O)cc1	1.32
O=C(O)COc1cc(F)cc(Cl)c1	2.2
CCC12CC3CC(N)(C1)CC(CC)(C3)C2	4.36
O=C1CN=C(c2ccccc2F)c2cc(Cl)ccc2N1CC(O)CO (stereo unspecified)	1.51
COc1cc(Cc2cnc(N)nc2N)cc(OC)c1CO	0.42
COc1ccc(Cc2cnc(N)nc2N)cc1O	0.74
CCN(CCOC(C)=O)c1ccccc1	2.04
O=[N+]([O-])c1nccn1CC(O)COCC(F)(F)F (stereo unspecified)	0.52
COC1C(Cl)C(Cl)C(Cl)C(OC)C1OC (stereo unspecified)	1.87
COC(=O)COc1c(OC)cc(Cc2cnc(N)nc2N)cc1OC	0.55
CCOC(=O)C(=Cc1ccc(Cl)cc1)C(=O)OCC	3.96
CSc1nnc(C)c(=O)n1N	-0.16
COc1ccccc1C1=NCC(=O)Nc2ccc(Cl)cc21	2.63
CCOc1cc(Cc2cnc(N)nc2N)cc(OCC)c1C(C)(C)O	2.46
Cc1cc2c(cc1Cc1cnc(N)nc1N)OCO2	1.89
NC1CC2OC1c1ccccc12 (stereo unspecified)	0.75
Oc1ccc(C(c2ccc(O)cc2)c2ccccn2)cc1	2.84
CNc1ccc(C(=O)OCCN(C)C)cc1	1.95
CCOC(=O)C(=Cc1ccc(OC)c(OC)c1)C(C)=O	2.02
COP(=O)(OC)Oc1ccc([N+](=O)[O-])cc1Cl	1.83
OC(C1CO1)C(O)C1CO1 (stereo unspecified)	-1.29

Source: the OPERA property sets (Mansouri et al. 2018)
